≈ marks a conversion by molar mass, not a printed value.

This note sets out measurements from article PMC5068113 (Pharmacognosy Magazine, 2016).

Holding throughout (test): CYP inhibition by substrate-cocktail method in HLM
Holding throughout (format): in vitro ADME

One series addresses T1, human CYP2C8 (Homo sapiens, UniProt P10632).
T1 sequence (P10632 1-490): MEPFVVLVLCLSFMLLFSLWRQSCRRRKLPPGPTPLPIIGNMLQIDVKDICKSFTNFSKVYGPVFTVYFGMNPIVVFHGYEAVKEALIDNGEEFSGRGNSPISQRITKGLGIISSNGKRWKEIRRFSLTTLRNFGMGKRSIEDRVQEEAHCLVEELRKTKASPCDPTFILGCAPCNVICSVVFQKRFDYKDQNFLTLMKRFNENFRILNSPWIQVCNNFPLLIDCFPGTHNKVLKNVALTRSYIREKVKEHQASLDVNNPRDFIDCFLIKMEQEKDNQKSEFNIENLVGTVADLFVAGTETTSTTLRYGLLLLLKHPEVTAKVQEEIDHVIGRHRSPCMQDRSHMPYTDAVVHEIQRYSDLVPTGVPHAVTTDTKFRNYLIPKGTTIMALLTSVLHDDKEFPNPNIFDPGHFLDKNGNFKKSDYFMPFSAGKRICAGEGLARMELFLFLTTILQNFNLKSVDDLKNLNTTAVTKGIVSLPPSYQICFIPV

Another series deals with CYP2D6 (Homo sapiens, UniProt P10635). The conditions noted are these: human liver microsomes, pH 7.4, probe dextromethorphan.
For a further series, the target named is CYP2C9 (Homo sapiens, UniProt P11712). As to conditions: human liver microsomes, pH 7.4, probe diclofenac. (In general: Liver microsomes are vesicles of endoplasmic reticulum, rich in cytochrome P450 enzymes.)
Another series addresses T2, CYP1A2 (Homo sapiens, UniProt P05177).
T2 sequence (P05177 1-516): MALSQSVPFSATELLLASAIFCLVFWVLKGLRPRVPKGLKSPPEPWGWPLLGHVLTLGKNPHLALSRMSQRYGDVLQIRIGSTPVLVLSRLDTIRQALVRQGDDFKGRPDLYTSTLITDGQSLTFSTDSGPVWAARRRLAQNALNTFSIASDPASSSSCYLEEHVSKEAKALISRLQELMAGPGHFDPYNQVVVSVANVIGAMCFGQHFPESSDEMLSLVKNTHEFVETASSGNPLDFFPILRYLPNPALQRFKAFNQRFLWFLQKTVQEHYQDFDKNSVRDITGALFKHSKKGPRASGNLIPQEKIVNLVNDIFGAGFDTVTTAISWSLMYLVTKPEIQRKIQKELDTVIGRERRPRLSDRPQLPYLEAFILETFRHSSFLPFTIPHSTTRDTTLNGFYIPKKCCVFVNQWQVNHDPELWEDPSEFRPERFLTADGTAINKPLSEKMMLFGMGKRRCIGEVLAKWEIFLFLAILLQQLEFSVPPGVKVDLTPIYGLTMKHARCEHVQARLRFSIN
The conditions noted are these: human liver microsomes, pH 7.4, probe tacrine.

Sequence of CYP2C9 (P11712 whole entry): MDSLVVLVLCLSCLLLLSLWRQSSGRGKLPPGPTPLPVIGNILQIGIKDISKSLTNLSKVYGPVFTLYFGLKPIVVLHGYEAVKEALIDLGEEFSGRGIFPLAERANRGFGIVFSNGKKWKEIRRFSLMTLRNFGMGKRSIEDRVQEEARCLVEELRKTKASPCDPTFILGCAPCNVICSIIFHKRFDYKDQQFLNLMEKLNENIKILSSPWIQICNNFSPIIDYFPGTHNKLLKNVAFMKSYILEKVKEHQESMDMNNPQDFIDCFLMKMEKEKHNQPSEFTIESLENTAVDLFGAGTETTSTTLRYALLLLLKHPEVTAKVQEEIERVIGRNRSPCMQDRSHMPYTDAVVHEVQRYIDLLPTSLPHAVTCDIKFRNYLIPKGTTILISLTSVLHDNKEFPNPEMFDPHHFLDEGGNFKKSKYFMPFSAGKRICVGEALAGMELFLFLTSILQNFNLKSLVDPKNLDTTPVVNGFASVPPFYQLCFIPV
Sequence of CYP2D6 (P10635 whole entry): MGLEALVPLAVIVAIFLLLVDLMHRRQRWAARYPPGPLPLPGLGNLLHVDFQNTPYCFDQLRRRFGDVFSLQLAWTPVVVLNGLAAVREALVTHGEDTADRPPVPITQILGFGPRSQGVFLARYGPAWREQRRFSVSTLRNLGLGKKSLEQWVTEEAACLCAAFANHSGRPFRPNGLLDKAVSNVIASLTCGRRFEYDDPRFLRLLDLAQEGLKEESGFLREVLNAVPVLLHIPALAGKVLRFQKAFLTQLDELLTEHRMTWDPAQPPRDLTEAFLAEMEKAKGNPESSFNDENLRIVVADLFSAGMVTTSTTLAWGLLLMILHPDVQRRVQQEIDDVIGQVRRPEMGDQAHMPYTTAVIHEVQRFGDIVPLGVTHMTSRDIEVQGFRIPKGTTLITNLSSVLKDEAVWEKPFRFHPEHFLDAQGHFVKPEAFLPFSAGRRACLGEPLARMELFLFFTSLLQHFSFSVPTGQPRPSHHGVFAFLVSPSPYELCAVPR

Turning to `CC1(CO)C(O[C@@H]2O[C@H](C(=O)O)[C@@H](O)[C@H](O)[C@H]2O)CC[C@@]2(C)C1CC[C@]1(C)C2CC=C2[C@H]3CC(C)(C)[C@H](O)[C@@H](O)[C@]3(CO)[C@H](O)C[C@]21C` (stereo partly shown) [DGA, deacylgymnemic acid], the “effect on CYP2C8 activity (in words)” value on human CYP2C8 was “unaffected”.
A word on the IC50: it is the concentration at which inhibition is half-maximal. For `Clc1ccc(COC(Cn2ccnc2)c2ccc(Cl)cc2Cl)c(Cl)c1` (stereo not shown) [MCZN, miconazole], the values for the concentration for half-maximal inhibition (IC50) at 8 min against CYP2D6, against CYP2C9 and against CYP1A2 were 0.56 µg/mL (≈ 1.35 µM), 0.19 µg/mL (≈ 0.457 µM) and 0.89 µg/mL (≈ 2.14 µM), respectively.
